Measured values published in patent publication US20230126361A1, “METHODS OF CONTROLLING OR PREVENTING INFESTATION OF PLANTS BY THE PHYTOPATHOGENIC MICROORGANISM CORYNESPORA CASSIICOLA, […] AND/OR […]” (SYNGENTA CROP PROTECTION AG, priority 2020, published 2023).

Key:
Type in all cases: cell-based
Conditions in all cases: PDB, 24° C., 3-4 days, 620 nm
Cercospora kikuchii = Cercospora kikuchii (leaf blight) liquid culture growth inhibition
Protocol: (§1) Conidia of the fungus from cryogenic storage were directly mixed into nutrient broth (PDB potato dextrose broth). A DMSO solution of the test compounds was placed into a microtiter plate (96-well format) and the nutrient broth containing the fungal spores was added to it. The test plates were incubated at 24° C. and the inhibition of growth was determined photometrically after 3-4 days at 620 nm.

Corynespora cassiicola = Corynespora cassiicola (target leaf spot) liquid culture growth inhibition
Protocol: as §1, with “growth (% control of Corynespora cassiicola)” for “growth”, “nm. The activity of a compound is derived by comparing the inhibition of growth in the treated test solution to the growth in the untreated check. […]” for “nm.”

Cercospora sojina = Cercospora sojina (frogeye leaf spot) liquid culture growth inhibition
Protocol: as §1

Cc1nc2c(F)c(F)ccc2cc1Oc1cccc(F)c1C(C)(C)O [2-[2-(7,8-difluoro-2-methylquinolin-3-yloxy)-6-fluorophenyl]propan-2-ol]
% control (Example 3: Cercospora kikuchii) (Cercospora kikuchii; 0.74 ppm): at least 20%
% control of Cercospora kikuchii (Cercospora kikuchii; 2.2 ppm): at least 50%
% control of Cercospora kikuchii (Cercospora kikuchii; 6.7 ppm): at least 50%
% control of Corynespora cassiicola (Corynespora cassiicola; 0.027 ppm): at least 20%
% control of Corynespora cassiicola (Corynespora cassiicola; 0.25 ppm): at least 20%
% control of Corynespora cassiicola (Corynespora cassiicola; 0.74 ppm): at least 50%
% control of Corynespora cassiicola (Corynespora cassiicola; 2.2 ppm): at least 70%
% control of Corynespora cassiicola (Corynespora cassiicola; 6.7 ppm): at least 90%
% control of Cercospora sojina (Cercospora sojina; 0.25 ppm): at least 20%
% control of Cercospora sojina (Cercospora sojina; 0.74 ppm): at least 20%
% control of Cercospora sojina (Cercospora sojina; 2.2 ppm): at least 50%
% control of Cercospora sojina (Cercospora sojina; 6.7 ppm): at least 50%
